Assay results as given in patent publication US20030220521A1, “Renal-selective prodrugs for control of renal sympathetic nerve activity in the treatment of hypertension” (G.D. Searle & Co., priority 1989, published 2003).

Legend:
[1] = tested on: spontaneously hypertensive rats; experiment: Assay VI: acute in vivo effects on mean arterial pressure and renal blood flow in anesthetized SHR (i.v. or i.d.); parameters: species or system rat; details: for MAP / RBF / acute effect on mean arterial pressure / acute effect on renal blood flow: 50 mg/kg i.v.
Description: Spontaneously hypertensive rats were anesthetized with inactin (100 mg/kg, i.p.) and catheters were implanted into a carotid artery for measurement of mean arterial pressure (Gould model 3800 chart recorder; Statham pressure transducer model no. P23DB) and into a jugular vein for compound administrations (i.v. or i.d.). In addition, a flow probe was implanted around the left renal artery for measurement of renal blood flow using pulsed Doppler flowmetry. Rats were allowed 60 min to stabilize before 10 minutes of control recordings of mean arterial pressure and renal blood flow were obtained. Control measurements were followed by intravenous injection of 50 mg/kg of fusaric acid or the Ex. #859 conjugate. […] The Ex. #859 conjugate had no effect on mean arterial pressure at a dose of 100 mg/kg (n=4) during a 60 minute observation period. Renal blood flow (n=4) was unchanged 15 minutes after injection of the Ex. #859 conjugate but increased from 1.1 KHz (control period) to 3.5 KHz at 30 minutes postinjection.

rats, heart and kidneys = experiment: Assay X: catecholamine analysis of heart and kidney tissue after 5 days of infusion; type: in vivo, rat
Description: Following 5 days of infusion, the kidney was exposed through a small flank incision, made in the anesthetized rat, and the renal artery and vein were ligated. Following this the kidney was rapidly excised distal to the ligation and frozen in liquid nitrogen. Similarly, the heart was excised and frozen subsequent to the removal of both kidneys. The frozen tissues were stored in closed containers at −80° C. Tissue samples were thawed on ice and their weight recorded prior to being placed in a flat bottom tube. The cold extraction solvent (2 ml/g tissue) was then added and the sample was homogenized with a Polytron. Extraction Solvent: 0.1 M perchloric acid (3 ml of 70% PCA to 500 ml); 0.4 mM Na metabisulphite (38 mg/500 ml). The volume was then measured and 0.05 ml of a 1 uM/L solution of dihydroxybenzylamine (DHBA) in extraction solvent was added for every 0.95 ml of homogenate to yield a 50 nM/L internal standard concentration. The homogenate was then mixed and centrifuged at 4° C., 3000 rpm for 35 minutes. A 2 ml aliquot of the supernatant was then neutralized by adding 0.5 ml of 2 M Tris, pH 8.8 and mixing. The sample was then placed on an alumina column (40 mg, Spe-ed CAT cartridge; Applied Separations; Bethlehem, Pa.) and the catecholamines were bound, washed and eluted using a vacuum manifold system (Adsorbex SPU, EM Science, Cherry Hill, N.J.) operating at ca. 4 ml/min. until the column was dry. Washes of 1 ml H20—0.5 ml MeOH—1 ml H20 were followed by elution with 1 ml of extraction solvent. A 200 μl sample of the eluant was injected onto a C-18 reversed phase analytical HPLC column, 5 um, 4.6 mm×250 mm (e.g., Beckman #235335, LKB 2134-630 Spherisorb ODS-2) and eluted with a recycled mobile phase run at ambient temperature and a flow rate of 0.5 ml/min (ca. 75 bar). Mobile Phase: 0.02 M Na2HP04 in 75/25(v/v) H20/MeOH 0.007% SDS pH 3.5 (conc. H3P04). The separated catecholamines were detected with a LKB 2143 electrochemical detector at a potential setting of 500 mV using a teflon flow cell spacer of 2.2 μl and a time constant of 2 sec. Peak heights were measured and recorded along with the chromatogram tracing using a Spectra-Physics 4270 integrator. […] The resulting factor (calculated for each sample) was used to correct for losses due to dilution, non-specific binding to the tissue precipitate, incomplete elution, etc. Concentrations were calculated by multiplying the peak heights for Epi, NE and DA by that samples correction factor and then dividing this value by the peak height of the respective standard. […] This value is multiplied by the volume of the homogenate (determined previously) to get the total catecholamine content of the tissue expressed in moles/g tissue. […]

[2] = anesthetized SHR, 60 minute observation

| Structure (SMILES) | MAP ([1]; 15 min) [mm Hg] | RBF ([1]; 15 min) [KHz] | MAP ([1]; 30 min) [mm Hg] | RBF ([1]; 30 min) [KHz] | MAP ([1]; 45 min) [mm Hg] | RBF ([1]; 45 min) [KHz] | MAP ([1]; 60 min) [mm Hg] | RBF ([1]; 60 min) [KHz] | MAP ([1]; time zero (control)) [mm Hg] | RBF ([1]; time zero (control)) [KHz] | acute effect on mean arterial pressure [1, 2] | acute effect on renal blood flow [1, 2] | Renal blood flow change ([1]; anesthetized SHR, i.d. 100 mg/kg, 15 minutes after injection) | Renal Blood Flow ([1]; anesthetized SHR, i.d. 100 mg/kg, 30 minutes postinjection) [KHz] | effect on mean arterial pressure ([1]; anesthetized SHR, i.d. 100 mg/kg, 60 minute observation) | Renal Blood Flow ([1]; anesthetized SHR, i.d. 100 mg/kg, control period) [KHz] | Renal blood flow course ([1]; anesthetized SHR, i.d. 100 mg/kg, following 30 minute observation period (30-60 min)) | heart norepinephrine concentration relative to vehicle (rats, heart and kidneys) | kidney norepinephrine concentration relative to vehicle (rats, heart and kidneys) |
| --- | --- | --- | --- | --- | --- | --- | --- | --- | --- | --- | --- | --- | --- | --- | --- | --- | --- | --- | --- |
| CCCCc1ccc(C(=O)NNC(=O)CCC(NC(C)=O)C(=O)O)nc1 [Ex. #859, N-acetyl-L-glutamic acid, 5-[(5-butyl-2-pyridinyl)-carbonyl]hydrazide] | 163 | 3.8 | 164 | 4.0 | 157 | 4.6 | 159 | 4.8 | 156 | 2.4 | no acute effects | increased renal blood flow to a greater degree than fusaric acid | unchanged | 3.5 | no effect | 1.1 | remained at this level | only fusaric acid decreased heart norepinephrine concentration | decreased kidney norepinephrine concentration |
| CCCCc1ccc(C(=O)O)nc1 [Fusaric Acid, 5-n-butylpicolinic acid] | 111 | 3.1 | 106 | 3.2 | 103 | 3.4 | 99 | 3.9 | 155 | 2.5 | decreased mean arterial pressure | increased renal blood flow |  |  |  |  |  | decreased heart norepinephrine concentration | decreased kidney norepinephrine concentration |
